{"source": "ChEMBL document CHEMBL4229350", "about": "“Antimicrobial activity and self-assembly behavior of antimicrobial peptide chensinin-1b with lipophilic alkyl tails” (Eur J Med Chem, 2018)", "key": {"U-937 [1]": {"test_system": "U-937", "assay": "Antiinflammatory activity in human U937 cells assessed as inhibition of LPS-induced TNF-alpha production up to 40 microg/ml after 24 hrs by ELISA relative to control", "format": "functional"}, "U-937 [2]": {"test_system": "U-937", "assay": "Antiinflammatory activity in human U937 cells assessed as inhibition of LPS-induced IL-6 production up to 40 microg/ml after 24 hrs by ELISA relative to control", "format": "functional"}, "Enterococcus faecalis": {"test_system": "Enterococcus faecalis", "assay": "Antimicrobial activity against Enterococcus faecalis CGMCC 1.595 after 18 hrs by micro dilution method", "format": "functional", "conditions": "CGMCC 1.595, 18 h"}, "Escherichia coli [3]": {"test_system": "Escherichia coli", "assay": "Antimicrobial activity against Escherichia coli AS 1.349 after 18 hrs by micro dilution method", "format": "functional", "conditions": "AS 1.349, 18 h"}, "MCF7": {"test_system": "MCF7", "assay": "Cytotoxicity against human MCF7 cells assessed as reduction in cell viability after 1 hr by MTT assay", "format": "functional, cell-based", "conditions": "MCF7, 1 h"}, "Staphylococcus aureus [4]": {"test_system": "Staphylococcus aureus", "assay": "Antimicrobial activity against Staphylococcus aureus AS 1.72 after 18 hrs by micro dilution method", "format": "functional", "conditions": "AS 1.72, 18 h"}, "Pseudomonas aeruginosa": {"test_system": "Pseudomonas aeruginosa", "assay": "Antimicrobial activity against Pseudomonas aeruginosa CGMCC 1.860 after 18 hrs by micro dilution method", "format": "functional", "conditions": "CGMCC 1.860, 18 h"}, "Lactococcus lactis": {"test_system": "Lactococcus lactis", "assay": "Antimicrobial activity against Streptococcus lactis AS 1.1690 after 18 hrs by micro dilution method", "format": "functional", "conditions": "AS 1.1690, 18 h"}, "Escherichia coli [5]": {"test_system": "Escherichia coli", "assay": "Antimicrobial activity against Escherichia coli AS 1.349 assessed as induction of outer membrane permeabilization by measuring NPN uptake by fluorescence assay", "format": "functional, organism-based"}, "[6]": {"assay": "Hemolytic activity against human erythrocytes after 1 hr", "format": "ADME, cell-based, Erythrocyte"}, "Lipid bilayer [7]": {"test_system": "Lipid bilayer", "assay": "Induction of membrane permeabilization in calcein loaded PC/cholesterol large unilamellar vesicles assessed as calcein leakage at 50 uM after 10 mins by fluorescence assay relative to control"}, "[8]": {"assay": "Self-assembly property assessed as diameter of monodispersed micelles at 1 mg/ml at pH 7 by TEM analysis", "format": "physicochemical"}, "Lipid bilayer [9]": {"test_system": "Lipid bilayer", "assay": "Induction of membrane permeabilization in calcein loaded LPS/PC/PG large unilamellar vesicles assessed as calcein leakage after 15 mins by fluorescence assay"}, "A-375": {"test_system": "A-375", "assay": "Cytotoxicity against human A375 cells assessed as reduction in cell viability after 1 hr by MTT assay", "format": "functional, cell-based", "conditions": "A-375, 1 h"}, "Bacillus cereus": {"test_system": "Bacillus cereus", "assay": "Antimicrobial activity against Bacillus cereus AS 1.126 after 18 hrs by micro dilution method", "format": "functional", "conditions": "AS 1.126, 18 h"}, "Staphylococcus aureus [10]": {"test_system": "Staphylococcus aureus", "assay": "Antimicrobial activity against Staphylococcus aureus AS 1.72 assessed as induction of outer membrane permeabilization by measuring NPN uptake by fluorescence assay", "format": "functional, organism-based"}, "[11]": {"assay": "Self-assembly property assessed as diameter of monodispersed micelles at 1 mg/ml at pH 2 by DLS method", "format": "physicochemical"}, "HeLa": {"test_system": "HeLa", "assay": "Cytotoxicity against human HeLa cells assessed as reduction in cell viability after 1 hr by MTT assay", "format": "functional, cell-based"}, "Lipid bilayer [12]": {"test_system": "Lipid bilayer", "assay": "Induction of membrane permeabilization in calcein loaded LPS/PC/PG large unilamellar vesicles assessed as calcein leakage at 50 uM after 15 mins by fluorescence assay relative to control"}, "Staphylococcus aureus [13]": {"test_system": "Staphylococcus aureus", "assay": "Antimicrobial activity against Staphylococcus aureus AS 1.72 assessed as induction of bacterial cytoplasmic membrane depolarization at 2 times MIC after 6 mins by diSC3-5 dye-based fluorescence assay", "format": "functional, organism-based"}, "Enterococcus faecium": {"test_system": "Enterococcus faecium", "assay": "Antimicrobial activity against Enterococcus faecium CGMCC 1.2334 after 18 hrs by micro dilution method", "format": "functional", "conditions": "CGMCC 1.2334, 18 h"}, "[14]": {"assay": "Self-assembly property assessed as diameter of monodispersed micelles at 1 mg/ml at pH 7 by DLS method", "format": "physicochemical"}}, "note": "pIC50: −log10 of the molar value. Activity calls are given as the source filed them. The rule behind the calls is not given here. Bridge positions count the residues as written; N and C are the ends. Square brackets hold non-standard residues; d marks the D form. Peptide text beside a SMILES is read from it. * marks the point of attachment. X1 = CC[C@H](C)CCCCC(=O)*; Dab = NCC[C@H](N)C(=O)O", "data": [{"compound": "CC[C@H](C)CCCCC(=O)N[C@@H](CCN)C(=O)N[C@H](C(=O)N[C@@H](CCN)C(=O)N[C@H]1CCNC(=O)[C@H]([C@@H](C)O)NC(=O)[C@H](CCN)NC(=O)[C@H](CCN)NC(=O)[C@H](CC(C)C)NC(=O)[C@@H](Cc2ccccc2)NC(=O)[C@H](CCN)NC1=O)[C@@H](C)O", "note": "(X1-[Dab]T[Dab][Dab][Dab][dF]L[Dab][Dab]T; lactam 4-C)", "values": [{"measurement": "inhibition (INH)", "setting": "U-937 [1]", "result": 28, "unit": "%"}, {"measurement": "inhibition (INH)", "setting": "U-937 [2]", "result": 44, "unit": "%"}]}, {"compound": "H-SKVWRHWRRFWHRAHRKL-OH", "values": [{"measurement": "MIC", "setting": "Enterococcus faecalis", "result": 3.13, "unit": "µM"}, {"measurement": "MIC", "setting": "Escherichia coli [3]", "result": 6.25, "unit": "µM"}, {"measurement": "pIC50", "setting": "MCF7", "result": 4.29}, {"measurement": "MIC", "setting": "Staphylococcus aureus [4]", "result": 3.13, "unit": "µM"}, {"measurement": "MIC", "setting": "Pseudomonas aeruginosa", "result": 1.56, "unit": "µM"}, {"measurement": "MIC", "setting": "Lactococcus lactis", "result": 3.13, "unit": "µM"}, {"measurement": "Activity", "setting": "Escherichia coli [5]", "result": "Dose-dependent effect"}, {"measurement": "HC50 at 1 h", "setting": "[6]", "result": "> 500", "unit": "µM"}, {"measurement": "Activity", "setting": "Lipid bilayer [7]", "result": 20, "unit": "%"}, {"measurement": "Activity", "setting": "[8]", "result": 141, "unit": "nm"}, {"measurement": "Activity", "setting": "Lipid bilayer [9]", "result": "Dose-dependent effect"}, {"measurement": "pIC50", "setting": "A-375", "result": "< 3.90"}, {"measurement": "MIC", "setting": "Bacillus cereus", "result": 3.13, "unit": "µM"}, {"measurement": "Activity", "setting": "Staphylococcus aureus [10]", "result": "Dose-dependent effect"}, {"measurement": "Activity", "setting": "[11]", "result": 3990, "unit": "nm"}, {"measurement": "pIC50", "setting": "HeLa", "result": 3.95}, {"measurement": "Activity", "setting": "Lipid bilayer [12]", "result": 62, "unit": "%"}, {"measurement": "Activity", "setting": "Staphylococcus aureus [13]", "result": "Active"}, {"measurement": "MIC", "setting": "Enterococcus faecium", "result": 1.56, "unit": "µM"}, {"measurement": "Activity", "setting": "[14]", "result": 60, "unit": "nm"}]}]}
